Data on 1 compound can be found in article PMC7509555, “An In Vitro Study for Evaluating Permeability and Metabolism of Kurarinone” (Evidence-based Complementary and Alternative Medicine : eCAM, 2020).

What is called Km is the concentration of substrate that gives half-maximal velocity. As a reminder, the IC50 is the concentration at which inhibition is half-maximal. Broadly, the inhibition is the change of the read-out against control, counted positive when it falls. As a reminder, the Ki is a dissociation constant, usually derived from enzyme kinetics or from competition with a known ligand.

A short description of data set [1]: PAMPA permeability study. In kind it is in vitro ADME. To be noted: for Papp at 5 h: PAMPA, room temperature, read-out: PAMPA effective permeability Pe. The protocol: The PAMPA method was used to measure the membrane permeability values, as described by Singh et al. in an earlier study. Drug samples were dissolved in DMSO and then diluted to 10 mM concentrations as a stock solution. 300 μL diluted drugs solution was filled in the PAMPA plate as the “donor” wells, and the 96-well filter plate with a synthetic phospholipid membrane was then placed on the donor wells. The “acceptor” wells were filled with 200 μl of buffer solution, and the PAMPA instruments were incubated at room temperature for 5 h. Kurarinone permeability was assessed in quadruplicate at pH 4.0 and 7.4. […] At the end of the incubation, kurarinone and the marker compounds in the donor and acceptor wells were determined by HPLC, and permeability was calculated.
For orientation: PAMPA measures passive passage across an artificial lipid membrane.

A short description of data set [2]: Prediction of in vivo hepatic clearance in rat from RLM kinetics. In kind it is in vitro ADME. The text has this:
(§1) The following equations were utilized to predict the in vivo hepatic clearance of kurarinone in humans and rats.(1) CLint in vitro=Vmax/Km, (2) […], (3) CLH=QH·fu·CLint in/QH+fu·CLint in vivo, where the SF (scaling factor) represents the milligrams of microsomal protein per gram of the liver multiplied by the grams of liver weight; CLint is the intrinsic metabolic clearance; CLH is hepatic clearance; fu is the free fraction in the blood (no data were available for kurarinone; thus, fu was arbitrarily proposed to be 1); and QH is the hepatic blood flow. The CLH of kurarinone was calculated using equations (1)–(3).

Data set [3] concerns monkey liver microsomes (MLMs). Nature of the data set: Enzyme kinetics of P1 formation from kurarinone in MLMs. It counts as in vitro ADME. The protocol: (§2) Samples were prepared in a total volume of 200 μL, containing 0.3 mg/mL protein in human liver microsomes or 15 nM protein in recombinant human supersomes, probe substrates or 50 μM kurarinone, 10 mM MgCl2, 10 mM glucose-6-phosphate, and 1 unit/mL of glucose-6-phosphate dehydrogenase. The reactions were activated by adding NADPH following preincubation at 37°C for 5 min. The reactions were maintained at 37°C for 1 h and terminated by adding 200 μL ice-cold acetonitrile. The supernatant (10 μL) collected from the samples that were centrifuged (20,000 g, 20 min, 4°C) was injected into the HPLC system for analysis. Control incubations devoid of NADPH or kurarinone were performed parallelly to ensure that the produced metabolites were NADPH- or kurarinone-dependent.
(§3) Various concentrations of kurarinone (1–200 μM) were incubated with RLMs, MLMs, PLMs, RAMs, CYP1A2, and CYP2D6 to estimate kinetic parameters. The rest of the other conditions remained the same as described in Section 2.3. […] The apparent Km and Vmax values were calculated from nonlinear regression analysis of experimental data according to the Michaelis–Menten equation, and the results were represented graphically by Eadie–Hofstee plots. All incubations were carried out as triplicate independent experiments, and kinetic constants were recorded as mean ± SD.

Data set [4] in a line: Prediction of in vivo hepatic clearance in human from HLM kinetics. In kind it is in vitro ADME.
Text: as §1

Data set [5] addresses T1, CYP1A2 (Rattus norvegicus, UniProt P04799).
T1 construct: tissue Research Institute for Liver Disease Co., Ltd. (Shanghai, China); host or cells: pooled rat liver microsomes
T1 sequence (P04799 2-513): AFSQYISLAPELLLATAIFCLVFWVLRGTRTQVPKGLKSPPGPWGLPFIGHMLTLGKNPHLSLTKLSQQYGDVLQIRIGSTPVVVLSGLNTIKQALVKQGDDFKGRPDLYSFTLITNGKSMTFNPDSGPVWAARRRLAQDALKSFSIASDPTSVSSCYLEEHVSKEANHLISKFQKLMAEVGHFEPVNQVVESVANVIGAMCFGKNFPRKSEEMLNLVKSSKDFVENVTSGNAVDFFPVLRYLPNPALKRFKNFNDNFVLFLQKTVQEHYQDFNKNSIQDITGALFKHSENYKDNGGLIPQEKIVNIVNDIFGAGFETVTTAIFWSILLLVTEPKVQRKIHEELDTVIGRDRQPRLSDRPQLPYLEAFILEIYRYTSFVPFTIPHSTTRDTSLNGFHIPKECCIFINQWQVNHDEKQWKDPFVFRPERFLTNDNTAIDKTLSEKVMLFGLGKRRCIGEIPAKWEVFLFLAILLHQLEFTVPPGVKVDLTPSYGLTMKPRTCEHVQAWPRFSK
The data set can be described thus: Inhibition of CYP1A2 activity (phenacetin O-deethylation) in RLMs. In kind it is in vitro ADME. On the procedure:
as §2
RLMs were used to assess the inhibitory effects of kurarinone (100 μM) on six different human isoforms (CYP1A2, CYP2C9, CYP2D6, CYP2E1, CYP3A4, and CYP2C19). The probe substrates used in this experiment were 40 μM phenacetin for CYP1A2, 10 μM diclofenac for CYP2C9, 25 μM dextromethorphan for CYP2D6, 120 μM chlorzoxazone for CYP2E1, 35 μM testosterone for CYP3A4, and 20 μM (S)-mephenytoin for […] as described earlier. The reaction system has been described in Section 2.3. […] Dixon and Lineweaver–Burk plots were formed to confirm the reversible inhibition type, and a second plot of slopes from the Lineweaver–Burk plot over the concentrations of kurarinone was used to estimate the Ki value. All incubations were performed in triplicates, and mean values were used for analysis.

For data set [6], the system named is primary rat hepatocytes. The following applies: cited from earlier work.
Data set [7] has as its system human liver microsomes (HLMs). Nature of the data set: Enzyme kinetics of P1 formation from kurarinone in HLMs. In kind it is in vitro ADME.
The subject of data set [8] is rat liver microsomes (RLMs). Nature of the data set: Enzyme kinetics of P1 formation from kurarinone in RLMs. In kind it is in vitro ADME. The protocol: as §2, §3

Like-named read-outs stand apart in the source and are kept apart here.

For the compound `C=C(C)[C@H](CC=C(C)C)Cc1c(O)cc(OC)c2c1O[C@H](c1ccc(O)cc1O)CC2=O` [Kurarinone], the Papp at 5 h in data set [1] (pH = 4) was determined as 3.87 ± 1.39 ×10⁻⁶ cm/s; in data set [1] (pH = 7), 2.14 ± 0.82 ×10⁻⁶ cm/s. Further, in data set [1] (pH 4.0 and 7.4), the PAMPA permeability class result is recorded as “moderate permeability”. In addition, the entries for the “percentage of CLH versus hepatic blood flow (QH)” value in data set [2] (rat) and in data set [4] (human) were 83.35% and 81.27%, respectively. The “predicted hepatic clearance CLH” value in data set [2] (rats, from RLM kinetic parameters of P1, fu assumed 1) is 46.01 mL/min/kg body weight; in data set [4] (humans, from HLM kinetic parameters of P1, fu assumed 1), 16.82 mL/min/kg. Also, the “Vmax of P1 formation” value came out at 4.83 ± 0.14 nmol·min^−1·mg^−1 protein in data set [3], 1.56 ± 0.24 nmol·min^−1·mg^−1 protein in data set [7] and 3.34 ± 0.19 nmol·min^−1·mg^−1 protein in data set [8]. Moreover, the Michaelis constant (Km) in data set [3] (kurarinone 1–200 μM) was found to be 21 ± 3.42 µM; in data set [7] (kurarinone 1–200 μM), 22 ± 4.93 µM; in data set [8] (kurarinone 1–200 μM), 18.1 ± 3.91 µM. In data set [4] (in humans, high-clearance = >70% liver blood flow), the “clearance category based on CLH projected from in vitro data” value is reported as “high-clearance”. Further, the “inhibition type against CYP1A2” value in data set [5] (Dixon and Lineweaver–Burk plots) was “competitive”. In data set [5] (phenacetin O-deethylation, RLMs, read-out: IC50 against CYP1A2), the IC50 is 10 µM. For the same compound, the inhibition at 1 h, 100 μM in data set [5] (rat, rat liver microsomes, probe phenacetin 40 μM (O-deethylation), 100 μM kurarinone, 40 μM phenacetin, RLMs) is above 90%. The compound also registered an inhibition constant Ki in data set [5] (second plot of slopes from Lineweaver–Burk plots, RLMs) of 8.13 µM. For the same compound, the cytotoxicity result in data set [6] is reported as “remarkable cytotoxicity”.
